Laboratory results from patent US6753329B2, “Inhibitors of cyclin-dependent kinases, compositions and uses related thereto” (GPC Biotech Inc., priority 2001, dated 2004).
Like-named read-outs stand apart in the source and are kept apart here.

How the values were obtained:
[1] = biological target: T1, Cdk2/cyclin A (Homo sapiens, UniProt P24941); experiment: Cdk2/cyclin A inhibition assay; format: biochemical; conditions: read-out: K2/A
T1 construct: made in house; host or cells: Sf9 cells
From the text: (§1) Enzymes: Cdc2/cyclin B was obtained from commercial sources. Cdk2/his-cyclin Eshort was expressed in Sf9 cells. Cdk2/cyclin A, cdk4/cyclin D1, and cdk6/cyclin D2 were expressed in Sf9 cells. Protein kinase A (catalytic subunit, from bovine heart) and protein kinase C (mixed isozymes from rat brain) were obtained from commercial sources.

[2] = biological target: T2, Cdk4/cyclin D1 (Homo sapiens, UniProt P11802); experiment: Cdk4/cyclin D1 inhibition, glutathione-sepharose capture assay; format: biochemical; conditions: read-out: K4/D1
T2 construct: made in house; host or cells: Sf9 insect cells
From the text: as §1
(§2) Substrates: Histone H1 was from commercial sources. GST-Rb is glutathione-S-transferase fused to the N-terminal of residues 379-928 of the Rb protein.
(§3) Cdk2/cyclin E, Cdk4/cyclin D1, and Cdk6/cyclin D2 activity was determined using a glutathione-sepharose capture assay. The enzymes were expressed in Sf9 insect cells as heterodimers, and the substrate (GST-Rb) was glutathione-S-transferase fused to residues 379 to 928 of Rb retinoblastoma protein, expressed in E. coli. The assay solution contained 50 mM Tris.HCl, 10 mM MgCl2, 1 mM dithiothreitol, 50 μM adenosine triphosphate, 2 μCi [γ-^33P]adenosine triphosphate, 10% dimethylsulfoxide (from compounds), pH 7.5, 40 µg GST-Rb, and enzyme in a 100 μL volume. Compounds were added at various concentrations between 1 nM and 10 μM. The reaction was allowed to proceed for 15 min at 30° C. and was stopped by the addition of 70 μL of stop solution (237 mM disodium ethylenediamine tetraacetate, 105 mM adenosine triphosphate, pH 8.0). The GST-Rb was captured by binding to glutathione-sepharose bead (Amersham) for 110 min, and the suspension was filtered through a glass fiber filter. After washing the retained beads five time with phosphate-buffered saline containing 0.3% (w/v) Tween-20, the amount of ^33P incorporated was determined by scintillation counting after adding 100 μL scintillant. Relative activity was determined by dividing the amount of radioactivity incorporated in the presence of compound by the amount of radioactivity incorporated in a control experiment containing DMSO alone but no compound. The background radioactivity, determined in an experiment containing 50 mM disodium ethylenediamine tetraacetate in place of compound, was subtracted from all results before calculations.

[3] = biological target: T3, Cdc2/cyclin B (Homo sapiens, UniProt P06493); experiment: Cdc2/cyclin B inhibition, TCA precipitation assay; format: biochemical; conditions: 50 μM ATP, Histone H1 substrate
T3 construct: purchased
Procedure: as §1
Assays: Cdc2/cyclinB activity was determined by measuring incorporation of radioactivity from adenosine [γ-^32P]triphosphate into Histone H1 using a TCA precipitation assay. Cdc2/cyclin B kinase and Histone H1 were obtained from commercial sources. The final assay solution contained 50 mM Tris.HCl, 10 mM MgCl2, 1 mM dithiothreitol, 50 μM adenosine triphosphate, 2 μCi ^32P, 10% dimethylsulfoxide (from compounds), pH 7.5, 20 μg Histone H1, 6 U enzyme in a 50 μL volume. Compounds were added at various concentrations between 1 nM and 10 μM. The reaction was started with the addition of enzyme, allowed to proceed for 20 min at 30° C., and stopped by the addition of 20 μL of stop solution (237 mM disodium ethylenediamine tetraacetate, 105 mM adenosine triphosphate, pH 8.0). The protein was precipitated by the addition of 35 μL 70% (w/v) trichloroacetic acid, and the precipitate was captured on a 96-well glass fiber filter plate (Millipore, Inc.), which had been wet with 25% (w/v) trichloroacetic acid. The filter was washed ten times with 25% (w/v) trichloroacetic acid, and the amount of incorporated ^32P was determined by scintillation counting after adding 100 μL scintillant (Microscint 20, Packard Instruments). Relative activity was determined by dividing the amount of radioactivity incorporated in the presence of compound by the amount of radioactivity incorporated in a control experiment containing DMSO alone but no compound. The background radioactivity, determined in an experiment containing 50 mM EDTA in place of compound, was subtracted from all results before calculations.
P=min+(max−min)(1/(1+(IC50/[I])^s)) (1)
where P=1—relative activity is relative inhibition, [I] is concentration of compound, max and min are the maximum and minimum relative inhibition (1 and 0, respectively) and s is the so-called Hill slope.

[4] = biological target: T4, CDK2/cyclinE (Homo sapiens, UniProt P24941); experiment: Cdk2/cyclin E inhibition, glutathione-sepharose capture assay; format: biochemical; parameters: made in house; host or cells: Sf9 insect cells; conditions: 50 μM ATP, GST-Rb substrate; read-out: K2/E
From the text: as §1, §2, §3

[5] = biological target: T5, Cdk6/cyclin D2 (Homo sapiens, UniProt Q00534); experiment: Cdk6/cyclin D2 inhibition, glutathione-sepharose capture assay; format: biochemical; conditions: 50 μM ATP, GST-Rb substrate; read-out: K6/D2
T5 construct: made in house; host or cells: Sf9 insect cells
From the text: as §1, §2, §3

[6] = biological target: T4, CDK2/cyclinE; experiment: BIACORE SPR binding of CDK2/cyclinE to compound-loaded CM5 chip; conditions: 22° C., compound coupled to CM5 chip, Langmuir 1:1 model
Procedure: The affinity of chemical compounds to their corresponding binding partners may be determined, for example, using a BIACORE™ assay system (Biacore AB, Uppsala, SE). Other systems yielding a qualitatively similar result, such as, for example, those developed by Affinity Sensors (Cambridge, UK), will be readily apparent to those skilled in the art.
In a representative procedure, the binding of Compound R to its known binding partners CDK2/cyclinE was analyzed. The analysis was performed on a BLACORE 2000 SPR-Biosensor at 22° C. in a running buffer containing 20 mM HEPES (pH 7.4), 150 mM NaCl, 1 mM DTT and 0.005% Tween 20 (protein grade, Calbiochem). A 10 μM solution of Compound R was coupled at pH 8.0 to the dextrane-surface of a CM5 sensor-chip (research grade) via amide coupling chemistry. […] The association and dissociation of the CDK2/cyclinE complex onto the CM5-Compound R-loaded chip surface was measured at a flow rate of 30 μl/min. […]
The data were analyzed using the Bioevaluation software version 3.1 (Biacore AB, Uppsala, SE). […] The association and dissociation rates were determined separately or globally using a Langmuir 1:1 binding model. The affinities (KD) were calculated using the equation: […]

[7] = biological target: T6, Protein kinase A (catalytic subunit, from bovine heart) (Bos taurus, UniProt P00517); experiment: Protein kinase A inhibition, TCA precipitation assay; format: biochemical; conditions: 12 μM ATP, Histone H1; read-out: PKA
T6 construct: Protein kinase A (catalytic subunit, from bovine heart); purchased; host or cells: bovine heart
Procedure: as §1
Protein kinase C and protein kinase A were assayed using a TCA precipitation assay with Histone H1 as a substrate. For protein kinase A, the final assay contained 50 mM Tris, 10 mM MgCl2, 1 mM dithiothreitol, pH 7.5, 12 μM adenosine triphosphate, 10% (v/v) dimethylsulfoxide (from compounds), 20 μg Histone H1, 2 μCi [γ-^32P] adenosine triphosphate, 0.2 U protein kinase A in a 100 μL assay. A protein kinase C assay contained 50 mM Tris, 10 mM MgCl2, 1 mM dithiothreitol, 0.8 mM CaCl2, pH 7.5, 5 μM adenosine triphosphate, 10% (v/v) dimethylsulfoxide (from compounds), 20 μg Histone H1, 2 μCi [γ-^32P] adenosine triphosphate, 0.01 U protein. kinase C in a 50 μL assay. The assays were started by the addition of enzyme, allowed to react for 10 min at 30° C., and stopped by adding 0.4 volumes of 237 mM disodium ethylenediamine tetraacetate, 105 mM adenosine triphosphate, pH 8.0. The protein was precipitated from the stopped reaction by adding 0.5 volume 75% (w/v) trichloroacetic acid and captured by filtering through a 96-well glass fiber filtration apparatus (Millipore). The filters were washed ten times with 25% (w/v) trichloroacetic acid, and the amount of incorporated [^32P]phosphate was determined by adding 100 μl Microscint and scintillation counting.

[8] = biological target: c-Abl (Homo sapiens, UniProt P00519); experiment: c-Abl inhibition; format: biochemical
Chain of c-Abl (P00519 whole entry): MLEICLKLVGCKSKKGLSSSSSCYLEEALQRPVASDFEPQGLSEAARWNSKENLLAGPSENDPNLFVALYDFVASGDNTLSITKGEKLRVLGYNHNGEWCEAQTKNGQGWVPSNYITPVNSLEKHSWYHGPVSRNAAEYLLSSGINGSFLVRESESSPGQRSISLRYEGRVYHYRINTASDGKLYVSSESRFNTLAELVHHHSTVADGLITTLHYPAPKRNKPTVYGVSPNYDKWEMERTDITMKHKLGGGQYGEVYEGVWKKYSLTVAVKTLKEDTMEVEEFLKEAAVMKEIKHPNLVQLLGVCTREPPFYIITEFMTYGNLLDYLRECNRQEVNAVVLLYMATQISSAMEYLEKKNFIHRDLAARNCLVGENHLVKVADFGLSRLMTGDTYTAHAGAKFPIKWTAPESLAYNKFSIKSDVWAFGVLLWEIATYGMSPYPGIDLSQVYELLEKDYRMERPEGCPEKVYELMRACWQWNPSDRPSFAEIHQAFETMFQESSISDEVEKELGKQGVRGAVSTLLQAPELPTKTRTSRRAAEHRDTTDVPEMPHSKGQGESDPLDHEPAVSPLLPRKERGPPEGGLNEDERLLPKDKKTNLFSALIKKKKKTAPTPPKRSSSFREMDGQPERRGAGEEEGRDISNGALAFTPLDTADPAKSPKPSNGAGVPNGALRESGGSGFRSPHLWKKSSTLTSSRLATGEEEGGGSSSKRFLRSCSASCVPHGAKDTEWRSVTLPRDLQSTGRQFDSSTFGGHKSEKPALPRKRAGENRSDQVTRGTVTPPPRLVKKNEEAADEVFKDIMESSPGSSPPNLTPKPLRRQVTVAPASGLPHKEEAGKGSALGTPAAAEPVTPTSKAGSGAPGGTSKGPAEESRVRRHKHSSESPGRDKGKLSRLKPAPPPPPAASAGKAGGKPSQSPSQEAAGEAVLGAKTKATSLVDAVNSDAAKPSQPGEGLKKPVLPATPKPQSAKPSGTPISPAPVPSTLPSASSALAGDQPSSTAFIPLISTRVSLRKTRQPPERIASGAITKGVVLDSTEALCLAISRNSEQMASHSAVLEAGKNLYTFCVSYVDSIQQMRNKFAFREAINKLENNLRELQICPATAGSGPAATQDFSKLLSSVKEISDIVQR

T2 sequence (P11802 whole entry, species assumed): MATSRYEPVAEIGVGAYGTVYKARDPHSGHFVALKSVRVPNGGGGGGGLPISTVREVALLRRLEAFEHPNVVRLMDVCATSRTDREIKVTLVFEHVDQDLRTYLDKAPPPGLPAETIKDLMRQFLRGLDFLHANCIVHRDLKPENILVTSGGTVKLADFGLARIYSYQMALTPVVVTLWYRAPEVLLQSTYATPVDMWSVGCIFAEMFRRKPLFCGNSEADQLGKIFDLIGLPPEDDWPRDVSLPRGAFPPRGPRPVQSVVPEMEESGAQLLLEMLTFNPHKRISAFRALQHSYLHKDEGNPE
T2 sequence (P24385 whole entry partner, species assumed): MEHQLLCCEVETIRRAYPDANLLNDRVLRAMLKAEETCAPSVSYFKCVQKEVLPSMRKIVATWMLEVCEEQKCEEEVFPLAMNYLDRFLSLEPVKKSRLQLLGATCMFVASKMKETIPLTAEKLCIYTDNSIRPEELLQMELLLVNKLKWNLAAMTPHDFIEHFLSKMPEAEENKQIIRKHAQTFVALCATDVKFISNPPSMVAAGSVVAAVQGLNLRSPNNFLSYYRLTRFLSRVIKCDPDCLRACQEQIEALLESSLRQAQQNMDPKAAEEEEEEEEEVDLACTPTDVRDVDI
T3 sequence (P06493 whole entry, species assumed): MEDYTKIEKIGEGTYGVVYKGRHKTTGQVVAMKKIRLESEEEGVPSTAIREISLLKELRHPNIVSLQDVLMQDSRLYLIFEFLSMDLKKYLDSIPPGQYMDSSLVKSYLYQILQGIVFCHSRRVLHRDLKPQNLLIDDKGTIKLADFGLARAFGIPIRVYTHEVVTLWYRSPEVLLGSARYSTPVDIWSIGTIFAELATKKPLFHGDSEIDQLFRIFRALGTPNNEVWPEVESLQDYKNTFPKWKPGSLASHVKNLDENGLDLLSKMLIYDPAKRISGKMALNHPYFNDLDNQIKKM
T3 sequence (P14635 whole entry partner, species assumed): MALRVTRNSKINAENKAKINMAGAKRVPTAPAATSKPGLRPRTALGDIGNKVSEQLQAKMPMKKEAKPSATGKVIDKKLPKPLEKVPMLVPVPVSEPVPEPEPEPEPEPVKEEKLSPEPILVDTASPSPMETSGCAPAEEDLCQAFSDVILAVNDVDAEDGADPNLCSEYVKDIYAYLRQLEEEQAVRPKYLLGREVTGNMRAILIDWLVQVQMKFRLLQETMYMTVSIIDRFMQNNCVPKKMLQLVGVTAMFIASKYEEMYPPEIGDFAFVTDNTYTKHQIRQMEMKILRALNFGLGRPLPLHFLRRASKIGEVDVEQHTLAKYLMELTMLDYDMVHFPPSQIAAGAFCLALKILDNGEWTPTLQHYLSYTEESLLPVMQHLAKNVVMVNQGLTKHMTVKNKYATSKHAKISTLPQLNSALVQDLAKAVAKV
T5 sequence (Q00534 whole entry, species assumed): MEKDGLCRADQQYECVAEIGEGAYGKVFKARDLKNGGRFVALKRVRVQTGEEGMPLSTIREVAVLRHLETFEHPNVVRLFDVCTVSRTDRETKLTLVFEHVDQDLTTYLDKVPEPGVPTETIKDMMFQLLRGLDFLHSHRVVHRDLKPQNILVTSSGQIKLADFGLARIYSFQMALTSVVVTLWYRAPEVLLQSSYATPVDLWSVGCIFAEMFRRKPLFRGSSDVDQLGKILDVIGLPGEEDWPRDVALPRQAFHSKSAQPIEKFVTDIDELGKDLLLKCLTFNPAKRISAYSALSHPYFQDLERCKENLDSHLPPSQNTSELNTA
T5 sequence (P30279 whole entry partner, species assumed): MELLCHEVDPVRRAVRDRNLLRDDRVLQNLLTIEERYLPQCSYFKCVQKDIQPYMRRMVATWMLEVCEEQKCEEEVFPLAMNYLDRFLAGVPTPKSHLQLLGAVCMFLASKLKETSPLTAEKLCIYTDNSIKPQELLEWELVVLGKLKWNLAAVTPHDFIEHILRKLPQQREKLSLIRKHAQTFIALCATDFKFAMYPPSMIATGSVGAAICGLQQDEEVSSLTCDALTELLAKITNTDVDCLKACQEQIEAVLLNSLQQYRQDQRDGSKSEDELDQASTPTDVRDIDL

CC(C)c1nn(-c2c(Cl)cccc2Cl)c2nc(Cc3ccc(OP(=O)(O)O)cc3)[nH]c(=O)c12 [B]
IC50 [1]: < 100 nM
IC50 ([2]; 50 μM ATP, GST-Rb substrate): < 10000 nM
IC50 [3]: < 100 nM
IC50 [4]: < 10 nM

CC(C)N1CCN(Cc2cc(-c3[nH]nc4c3C(=O)c3c(NC(=O)NN5CCOCC5)cccc3-4)ccc2O)CC1 [K]
IC50 [4]: < 100 nM

O=C(Nc1cccc2c1C(=O)c1c-2n[nH]c1-c1ccc(OCCN2CCCC2)cc1)NN1CCOCC1 [Compound I]
IC50 [1]: < 100 nM
IC50 ([2]; 50 μM ATP, GST-Rb substrate): < 10 nM
IC50 [3]: < 100 nM
IC50 [4]: < 100 nM

Cc1cc(-c2[nH]nc3c2C(=O)c2c(NC(=O)NN4CCN(C)CC4)cccc2-3)ccc1OCCN1CCCC1 [Compound P]
IC50 [4]: < 100 nM

O=C(Nc1cccc2c1C(=O)c1c-2n[nH]c1-c1ccc(OCCN(CCO)CCO)cc1)NN1CCOCC1 [H]
IC50 [1]: < 100 nM
IC50 ([2]; 50 μM ATP, GST-Rb substrate): < 100 nM
IC50 [3]: < 100 nM
IC50 [4]: < 100 nM

O=C(Nc1cccc2c1C(=O)c1c-2n[nH]c1-c1ccc(OP(=O)(O)O)cc1)NN1CCOCC1 [J]
IC50 [4]: < 100 nM

CC(C)c1nn(-c2c(Cl)cc(Cl)cc2Cl)c2nc(Cc3ccc(OCCN4CCOCC4)cc3)[nH]c(=O)c12 [A]
IC50 [1]: < 100 nM
IC50 ([2]; 50 μM ATP, GST-Rb substrate): < 1000 nM
IC50 [2]: < 1000 nM
IC50 [3]: < 1000 nM
IC50 [5]: < 1000 nM
IC50 [4]: < 100 nM

CC(C)c1nn(-c2c(Cl)cc(Cl)cc2Cl)c2nc(Cc3ccc(OC(C)(C)C(=O)NCCOCCOCCOCCOCCOCCN)cc3)[nH]c(=O)c12 [Compound R]
Kd [6]: 8 nM

Cc1cc(OCCN2CCCC2)ccc1-c1[nH]nc2c1C(=O)c1c(NC(=O)NN3CCN(C)CC3)cccc1-2 [L]
IC50 ([2]; 50 μM ATP, GST-Rb substrate): < 100 nM
IC50 [3]: < 100 nM
IC50 [4]: < 100 nM

CN1CCN(NC(=O)Nc2cccc3c2C(=O)c2c-3n[nH]c2-c2ccc(OCCN3CC[C@H](O)C3)cc2)CC1 [O]
IC50 [4]: < 100 nM

CN1CCN(NC(=O)Nc2cccc3c2C(=O)c2c-3n[nH]c2-c2ccc(OCCN(CCO)CCO)cc2)CC1 [N]
IC50 [3]: < 10 nM
IC50 [4]: < 100 nM

CC(C)c1nn(-c2c(Cl)cc(Cl)cc2Cl)c2nc(Cc3ccc(NS(=O)(=O)CCCN4CCOCC4)cc3)[nH]c(=O)c12 [D]
IC50 [1]: < 100 nM
IC50 ([2]; 50 μM ATP, GST-Rb substrate): < 1000 nM
IC50 [3]: < 1000 nM
IC50 [4]: < 100 nM

CN1CCN(NC(=O)Nc2cccc3c2C(=O)c2c-3n[nH]c2-c2ccc(OCCN3CCCC3)cc2)CC1 [F]
IC50 [1]: < 100 nM
IC50 ([2]; 50 μM ATP, GST-Rb substrate): < 10 nM
IC50 [2]: < 10 nM
IC50 [3]: < 100 nM
IC50 [5]: < 10 nM
IC50 [4]: < 100 nM

CN1CCN(NC(=O)Nc2cccc3c2C(=O)c2c-3n[nH]c2-c2ccc(OCCN3CCC[C@H]3CO)cc2)CC1 [M]
IC50 [4]: < 100 nM

CC(C)c1nn(-c2c(Cl)cccc2Cl)c2nc(Cc3ccc(O)c(CN4CCN(C(C)C)CC4)c3)[nH]c(=O)c12 [Compound C]
IC50 [1]: < 100 nM
IC50 ([2]; 50 μM ATP, GST-Rb substrate): < 1000 nM
IC50 [3]: < 1000 nM
IC50 [7]: > 10 µM
IC50 [8]: > 10 µM
IC50 [4]: < 100 nM

CC(C)N1CCN(CCOc2ccc(-c3[nH]nc4c3C(=O)c3c(NC(=O)NN5CCOCC5)cccc3-4)cc2)CC1 [E]
IC50 [1]: < 10 nM
IC50 ([2]; 50 μM ATP, GST-Rb substrate): < 10 nM
IC50 [2]: < 10 nM
IC50 [3]: < 100 nM
IC50 [5]: < 10 nM
IC50 [7]: < 10 µM
IC50 [8]: < 10 µM
IC50 [4]: < 10 nM

CCCN(CCOc1ccc(-c2[nH]nc3c2C(=O)c2c(NC(=O)NN4CCOCC4)cccc2-3)cc1)CC1CC1 [G]
IC50 [1]: < 100 nM
IC50 ([2]; 50 μM ATP, GST-Rb substrate): < 10 nM
IC50 [3]: < 100 nM
IC50 [7]: > 10 µM
IC50 [8]: > 10 µM
IC50 [4]: < 100 nM

CN1CCN(NC(=O)Nc2cccc3c2C(=O)c2c-3n[nH]c2-c2ccc(OCCN3CCOCC3)cc2)CC1 [Q]
IC50 [1]: < 100 nM
IC50 ([2]; 50 μM ATP, GST-Rb substrate): < 10 nM
IC50 [2]: < 100 nM
IC50 [3]: < 100 nM
IC50 [5]: < 100 nM
IC50 [4]: < 10 nM
